# Legend:
# Format in all cases: cell-based
# [1] = tested on: primary mouse hepatocytes; experiment: Glucose production in primary mouse hepatocytes (glucose in culture media); settings: for 8-CPT/Dex-stimulated glucose production: serum-free; for 8-CPT/Dex-stimulated glucose production / decrease of glucose production: 6 hours
# Procedure: (§1) The overnight-acclimated hepatocytes were washed twice with PBS (to remove any residual FBS and other additives in the TRL hepatocyte maintenance medium, pretreated with control (water) or selenium Compounds CDE (150 or 300 ppb of each selenium compound) in DMEM/F12 media supplemented with 10% fetal bovine serum (FBS) for 24 hr. These cells were then washed twice with PBS and incubated with the same dose of selenium Compounds CDE (150 or 300 ppb) in the presence or absence of insulin (10 or 100 nM, Sigma), 0.1 mM 8-CPT (Sigma) or 0.5 μM Dex (Sigma) in serum-free and glucose-free DMEM media (Invitrogen) supplemented with 20 mM lactose (Sigma) and 2 mM pyruvate (Sigma) and 15 mM HEPES (Sigma) for another 6 hours. After treatments, cell media were collected and subjected to glucose assay and toxicological studies of lactate dehydrogenase (LDH) and cells were collected for RNA and protein analysis.
# For the studies of Compounds CDE on primary mouse hepatocytes under totally serum-free culture conditions, hepatocytes were acclimated in hepatocyte maintenance medium (TRL) for 8 hours, washed twice with PBS (to remove any residual FBS and other additives in the culture dish) and then starved in serum-free DMEM/F12 media overnight. Some of these serum-starved hepatocytes were treated with control (water), selenium compounds (150 or 300 ppb of each compound) in the presence or absence of insulin (10 or 100 nM), 0.1 mM 8-CPT (Sigma) or 0.5 μM Dex (Sigma) in serum-free and glucose/phenol red-free DMEM media supplemented with 20 mM lactose and 2 mM pyruvate and 15 mM HEPES for 6 hours. After 6 hours treatment, culture media were collected for glucose analysis and toxicological studies monitoring LDH activity and cultured cells were isolated for protein analysis. In addition, some serum-starved hepatocytes were treated with Compounds CDE (300 ppb of each compound) in plain DMEM/F12 media for 0, 5, 30, 60, 120 and 180 min and cells were collected for the time-course protein analysis of various signaling molecules.
# Cell culture media from the above described treatments were collected and centrifuged at 300×g for 5 minutes to remove any potential dislodged hepatocytes and subjected to glucose analysis using a colormetric glucose assay kit (Abcam) according to the manufacturer protocol. The absorbance at OD570 nm in the samples and various concentrations of glucose standards were determined by the Bio-Tek microplate reader, and glucose concentration in the medium of each sample was obtained from the glucose standard curve, and then normalized by its protein level in attached cells which were determined using the Pierce Micro-BCA protein assay kit (Thermo Scientific-Piece Biotechnology, Rockford, Ill.) according to the manufacturer's protocol. Glucose levels in each treatment group were divided by the mean level in control group (without the treatments of Compounds CDE, insulin, 8-CPT and Dex) to obtain the relative glucose level. Data are presented as Mean±SEM of 3-4 samples.
# Similar to the studies on AML-12 cells, primary mouse hepatocytes were pretreated with a control (water) or 150 ppb and 300 ppb doses of selenium Compounds CDE in serum-containing DMEM/F12 media for 24 hours. This treatment was followed by retreatments with these selenium compounds in the presence or absence of insulin (10 and 100 nM) or insulin alone for 6 hours. […]
# [2] = tested on: primary mouse hepatocytes; experiment: Toxicological study: LDH level in culture media of primary mouse hepatocytes; settings: Compounds CDE (150, 300 ppb), insulin (10, 100 nM) or both; 24 hours serum-containing + 6 hours
# Procedure: as §1, with “After treatments, cell media were collected and subjected to glucose assay and toxicological studies of lactate dehydrogenase (LDH) and cells were collected for RNA and protein analysis.” left out
# Similar to the above glucose assay, cell culture media from the above described treatments were collected and centrifuged at 300×g for 5 minutes to remove any potential dislodged hepatocytes and subjected to LDH analysis using a […] (Abcam) according to the manufacturer protocol. In brief, the absorbance at OD450 nm in LDH standards and the culture medium samples after incubation with LDH substrates for every two minutes up to 40 minutes were determined by the Bio-Tek microplate reader. […]
# PDK1 = experiment: Western blot of pPdk1 in primary mouse hepatocytes; settings: 100 nM insulin 6 hours, or Compounds CDE both doses 24 hours + 6 hours
# Procedure: as §1, with “After treatments, cell media were collected and subjected to glucose assay and toxicological studies of lactate dehydrogenase (LDH) and cells were collected for RNA and protein analysis.” left out
# After the above described treatments, primary mouse hepatocytes were rinsed with ice-cold PBS and lysed in the ice-cold RIPA buffer containing complete proteinase and phosphatase inhibitors (Thermo-Fisher Scientific, Waltham, Mass.) on ice for 30 min Cell lysates were collected using a cell scraper and transfer pipette and then centrifuged at 12000×g for 30 min at 4° C. to remove the DNA pellet and obtain the protein extract. Protein levels in the supernatant of these cell lysates were determined using the Pierce Micro-BCA protein assay kit (Thermo Scientific-Piece Biotechnology, Rockford, Ill.) according to the manufacturer's protocol. […]
substance,measurement,setting,value
"insulin: insulin (10 or 100 nM, Sigma) used as comparator and cotreatment",8-CPT/Dex-stimulated glucose production,[1]; 10 nM insulin,significantly inhibited glucose production
same,8-CPT/Dex-stimulated glucose production,[1]; 100 nM insulin,only a trend of decreased glucose production
same,8-CPT/Dex-induced glucose production,"[1]; insulin 10 and 100 nM, vs 8-CPT/Dex group",significantly decreased 8-CPT/Dex-induced glucose production
same,decrease of glucose production,"[1]; insulin alone at 10 nM and 100 nM, vs water-treated control",25-30%
same,decrease of glucose production,"[1]; insulin alone, both doses (10, 100 nM), serum-starved, serum-free media",40-47%
same,LDH levels in the media,[2],did not cause a significant increase of LDH levels
same,pPdk1 protein level (in words),PDK1,significant increase

# — US9642874B2, “Compositions of selenoorganic compounds and methods of use thereof” (Alltech, Inc., priority 2014, dated 2017)
